{"source": "patent US5696164A", "about": "“Antifungal treatment of nails” (Johnson & Johnson Consumer Products, Inc., priority 1994, dated 1997)", "key": {"[1]": {"assay": "Nail swelling-pH profile (urea/propylene carbonate/propylene glycol/N-acetyl-l-cysteine/water)", "design": "species or system human", "settings": "FIG. 8; pH 3.2-7.0, 32 °C", "protocol": "(§1) The experimental procedure was the following: Clean human nail clippings were equilibrated to a constant weight by placing them in a desiccator over saturated CaCl2.6H2 O solution (29% relative humidity at room temperature) for at least 48 hours before use. Approximately 30 mg of human nail clippings were weighed into a glass vial. The exact initial weight was recorded. Four grams of the test formulation (pre-warmed to 32° C.) was added into the vial and maintained at 32° C. under stirring in a Heating/Stirring Module (Reacti-Therm III, Pierce). The changes in nail weights were monitored at predetermined intervals over 48 hours. At the end of the swelling experiment, the nail sample was rinsed with a mixture of N,N-dimethylformamide and methanol (1:1) to remove surface-bound drug. The nail sample was then digested, and the drug concentration in nail was determined by high pressure liquid chromatography method as described by Badcock and Davies, Assay of itraconazole in nail clippings by reversed phase, high performance liquid chromatography, Ann. Clin. Biochem, 27 (1990) 506-508.\nIt should be noted that, unlike the itraconazole formulations discussed above, which were tested at pH 3, the pH value of the miconazole nitrate formulation was set at pH 9. […] This was confirmed by the swelling-pH profile shown in FIG. 8, using the following formulation: […]"}, "[2]": {"settings": "calcium thioglycolate added directly into ointment; cited from earlier work"}, "[3]": {"settings": "as the formulation pH increases; cited from earlier work"}, "[4]": {"tested_on": "yeasts", "settings": "\"as low as\"; cited from earlier work"}, "[5]": {"tested_on": "dermatophites", "settings": "\"as low as\"; cited from earlier work"}, "[6]": {"settings": "after nail avulsion; cited from earlier work"}, "[7]": {"assay": "Nail swelling of human nail clippings in itraconazole formulations", "settings": "FIG. 3a, 32 °C, 48 h", "procedure": "The experimental procedure was the following: Clean human nail clippings were equilibrated to a constant weight by placing them in a desiccator over saturated CaCl2.6H2 O solution (29% relative humidity at room temperature) for at least 48 hours before use. Approximately 30 mg of human nail clippings were weighed into a glass vial. The exact initial weight was recorded. Four grams of the test formulation (pre-warmed to 32° C.) was added into the vial and maintained at 32° C. under stirring in a Heating/Stirring Module (Reacti-Therm III, Pierce). The changes in nail weights were monitored at predetermined intervals over 48 hours. […]\nThe nail swelling was expressed by the percentage of the initial nail weight (i.e., 100% of the initial nail weight means no swelling, and 200% means a nail swelling doubling the original weight, etc). An enhancement factor is used to show the increase in nail swelling due to the presence of nail penetration enhancer in comparison to the control, which were calculated according to the formula: enhancement factor=(% weight gain of the test nail sample)/(% weight gain of control nail sample, i.e., no enhancer & urea in the formulation). […] The drug concentration in nail was calculated by dividing the amount of the drug in nail (mg) by the weight of the initial nail clipping (i.e., dry nail weight in gram). […]"}, "[8]": {"assay": "Nail swelling in miconazole nitrate cream formulation", "design": "species or system human", "settings": "FIG. 7; 1% miconazole nitrate, 20% urea, 10% N-acetyl-l-cysteine cream, pH 9.0", "protocol": "as §1\n(§2) A nail swelling and drug partitioning experiment was also conducted for miconazole nitrate using procedures analogous to those described above. […]"}, "[9]": {"assay": "Miconazole nitrate partitioning into nail", "format": "in vitro ADME, human", "settings": "FIG. 7; 1% miconazole nitrate, 20% urea, 10% N-acetyl-l-cysteine cream, pH 9.0", "protocol": "as §1, §2"}, "[10]": {"settings": "prior to topical treatment of onychomycosis; cited from earlier work"}, "[11]": {"assay": "Effect of urea on nail swelling/hydration in aqueous urea solutions", "design": "species or system human", "settings": "pH 4.5", "protocol": "as §1\nThe effect of urea on nail swelling was investigated, using aqueous urea solutions of various concentrations at pH 4.5. […] For this reason, it is believed that the use of urea alone will not cause significant enhancement of drug permeation through the nail."}, "[12]": {"settings": "rats; skin pretreated with aqueous calcium thioglycolate solution; cited from earlier work"}}, "note": "Counter-ions that a name gives are not always drawn.", "data": [{"compound": "CC(=O)N[C@@H](CS)C(=O)O", "note": "[N-acetyl-l-cysteine, N-Acetyl-l-cysteine]", "values": [{"measurement": "working pH range", "setting": "[1]", "value": "wide working pH range"}]}, {"compound": "COc1ccc2c(c1)c(CC(=O)O)c(C)n2C(=O)c1ccc(Cl)cc1", "note": "[calcium salt of indomethacin, indomethacin]", "values": [{"measurement": "drug absorption", "setting": "[2]", "value": "dramatically decreased the absorption"}]}, {"compound": "CCC(C)n1ncn(-c2ccc(N3CCN(c4ccc(OCC5COC(Cn6cncn6)(c6ccc(Cl)cc6Cl)O5)cc4)CC3)cc2)c1=O", "note": "(centres unmarked) [itraconazole]", "values": [{"measurement": "solubility versus formulation pH", "setting": "[3]", "value": "decreases"}, {"measurement": "minimal inhibitory concentration (MIC)", "setting": "[4]", "value": 0.1, "unit": "mg/L"}, {"measurement": "minimal inhibitory concentration (MIC)", "setting": "[5]", "value": 0.1, "unit": "mg/L"}]}, {"compound": "CC(=O)N1CCN(c2ccc(OCC3COC(Cn4ccnc4)(c4ccc(Cl)cc4Cl)O3)cc2)CC1", "note": "(centres unmarked) [ketoconazole]", "values": [{"measurement": "efficacy in topically treating onychomycosis", "setting": "[6]", "value": "effective"}]}, {"compound": "N[C@@H](CS)C(=O)O", "note": "[l-cysteine]", "values": [{"measurement": "rank of nail swelling enhancement", "setting": "[7]", "value": "highest nail swelling enhancement"}]}, {"compound": "Clc1ccc(COC(Cn2ccnc2)c2ccc(Cl)cc2Cl)c(Cl)c1", "note": "(centres unmarked) [miconazole nitrate]", "values": [{"measurement": "nail swelling", "setting": "[8]", "value": "significant nail swelling"}, {"measurement": "miconazole partitioning into the nail", "setting": "[9]", "value": "substantial miconazole partitioning into the nail"}]}, {"compound": "Clc1ccc(COC(Cn2ccnc2)c2ccc(Cl)cc2Cl)c(Cl)c1", "note": "(centres unmarked) [miconazole]", "values": [{"measurement": "efficacy in topically treating onychomycosis", "setting": "[6]", "value": "effective"}]}, {"compound": "NC(N)=O", "note": "[urea]", "values": [{"measurement": "results of nonsurgical avulsion of nail dystrophies", "setting": "[10]", "value": "satisfactory results"}, {"measurement": "nail hydration", "setting": "[11]; 20% aqueous urea", "value": 30, "unit": "%"}, {"measurement": "nail hydration", "setting": "[11]; 40% aqueous urea", "value": 50, "unit": "%"}]}, {"compound": "insulin", "values": [{"measurement": "transdermal drug permeation", "setting": "[12]", "value": "enhanced transdermal drug permeation"}]}]}
